What was measured:
PDE8 (PDE8A) = target: T1, PDE8 (PDE8A) (Homo sapiens, UniProt O60658); assay: PDE assay, recombinant human PDE8A; assay type: biochemical; conditions: substrate about 4.8 nM [3H]-cAMP and 0.1 μM cAMP
T1 construct: His tag (hexahistidine, pcDNA4/HisMax) (N); made in house
Text: (§1) Based on the information of cDNA sequence of human PDE7A (Genbank/EMBL Accession No. NM002603), a cDNA encoding human PDE7A was cloned by PCR method, according to a method described in Sasaki et al. (Sasaki et al., Biochem. Biophys. Res. Commun., vol. 271, pp. 575-583, 2000). Further, based on the information of cDNA sequence of human PDE8A (Genbank/EMBL Accession No. AF388183), a cDNA encoding human PDE8A was cloned by PCR method, according to a method described in Gamanuma et al. (Gamanuma et al., Cell Signal, 2003, vol. 15, pp. 565-574). Further, a cDNA encoding human PDE11A was obtained, according to a method reported in Yuasa et al. (Yuasa et al., J. Biol. Chem., vol. 275, pp. 31469-31479, 2000). Using these cDNAs, recombinant proteins of human PDE7A, human PDE8A, and human PDE11A were prepared as follows.
(§2) DNA fragments comprising a cDNA encoding human PDE7A, human PDE8A or human PDE11A were linked to pcDNA4/HisMax (available from Invitrogen), to give a vector plasmid for expression of human proteins, with a histidine tag peptide (hexahistidine), added to the N-terminus. COS-7 cells were transfected with these vector plasmids, and the cells were cultured in Dulbecco's modified Eagle medium containing 10% bovine fetal serum for about 24 hours. […]

marmoset MPTP model = assay: Marmoset MPTP model, effect on L-dopa efficacy; assay type: in vivo; conditions: 0.3 mg/kg or 1 mg/kg, i.v., together with L-dopa, versus vehicle with L-dopa
Procedure: Using marmoset MPTP models, effects of test compound on pharmaceutical efficacy of L-dopa administration were tested as follows.
About 16 weeks before carrying out the tests, marmosets were administered with MPTP (1-methyl-4-phenyl-1,2,3,6-tetrahydropyridine) (2.5 mg/kg, i.v.), according to the method described in the literature (Fukuzaki et al., Pharmacol. Biochem. Behav., vol. 67 No. 1, pp. 121-129, September 2000), to degenerate dopaminergic neurons in the brain, and individuals showing parkinsonian symptoms were used.
Using these marmosets (age 3-4 years, bodyweight 300-400 g), the following three kinds of tests were performed. […]
After administration of test compound (PDE10 inhibitor) (or vehicle) and L-dopa+benserazide, each individual was transferred to an activity cage equipped with four photo cell sensor units, and observation was continued for 6 hours at longest. For each individual, locomotor activity and motor disability score were evaluated in every 10-minute interval.
Motor disability was assessed according to the following 7 evaluation items, and total score of the 7 items were regarded as the motor disability score. […]

PDE11 (PDE11A) = target: T2, PDE11 (PDE11A) (Homo sapiens, UniProt Q9HCR9); assay: PDE assay, recombinant human PDE11A; assay type: biochemical; conditions: substrate about 12 nM [3H]-cGMP and 1 μM cGMP
T2 construct: His tag (hexahistidine, pcDNA4/HisMax) (N); made in house
Text: as §1, §2

T2 sequence (Q9HCR9 whole entry): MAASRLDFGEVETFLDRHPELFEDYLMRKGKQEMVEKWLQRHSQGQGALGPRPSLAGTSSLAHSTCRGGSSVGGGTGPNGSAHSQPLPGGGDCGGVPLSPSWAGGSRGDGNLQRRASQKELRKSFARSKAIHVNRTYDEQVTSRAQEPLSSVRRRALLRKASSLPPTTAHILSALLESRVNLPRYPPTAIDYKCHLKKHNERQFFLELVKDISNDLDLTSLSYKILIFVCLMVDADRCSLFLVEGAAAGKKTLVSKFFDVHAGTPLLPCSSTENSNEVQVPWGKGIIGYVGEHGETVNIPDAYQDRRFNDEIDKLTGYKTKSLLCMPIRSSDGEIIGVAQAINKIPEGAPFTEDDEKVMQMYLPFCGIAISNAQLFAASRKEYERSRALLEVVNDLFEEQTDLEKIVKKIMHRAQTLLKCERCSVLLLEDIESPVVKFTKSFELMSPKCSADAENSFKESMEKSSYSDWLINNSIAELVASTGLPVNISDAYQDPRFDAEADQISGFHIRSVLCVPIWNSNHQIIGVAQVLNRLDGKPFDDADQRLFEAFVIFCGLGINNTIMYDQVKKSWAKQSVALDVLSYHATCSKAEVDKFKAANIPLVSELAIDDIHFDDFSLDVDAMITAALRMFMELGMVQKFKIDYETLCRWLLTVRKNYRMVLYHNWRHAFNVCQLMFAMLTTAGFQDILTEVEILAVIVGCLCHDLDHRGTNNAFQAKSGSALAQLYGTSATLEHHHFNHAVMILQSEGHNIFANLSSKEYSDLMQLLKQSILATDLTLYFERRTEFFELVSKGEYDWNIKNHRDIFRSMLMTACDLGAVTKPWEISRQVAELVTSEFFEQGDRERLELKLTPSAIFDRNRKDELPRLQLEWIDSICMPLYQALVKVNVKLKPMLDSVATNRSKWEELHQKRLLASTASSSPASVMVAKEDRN
T1 sequence (O60658 whole entry): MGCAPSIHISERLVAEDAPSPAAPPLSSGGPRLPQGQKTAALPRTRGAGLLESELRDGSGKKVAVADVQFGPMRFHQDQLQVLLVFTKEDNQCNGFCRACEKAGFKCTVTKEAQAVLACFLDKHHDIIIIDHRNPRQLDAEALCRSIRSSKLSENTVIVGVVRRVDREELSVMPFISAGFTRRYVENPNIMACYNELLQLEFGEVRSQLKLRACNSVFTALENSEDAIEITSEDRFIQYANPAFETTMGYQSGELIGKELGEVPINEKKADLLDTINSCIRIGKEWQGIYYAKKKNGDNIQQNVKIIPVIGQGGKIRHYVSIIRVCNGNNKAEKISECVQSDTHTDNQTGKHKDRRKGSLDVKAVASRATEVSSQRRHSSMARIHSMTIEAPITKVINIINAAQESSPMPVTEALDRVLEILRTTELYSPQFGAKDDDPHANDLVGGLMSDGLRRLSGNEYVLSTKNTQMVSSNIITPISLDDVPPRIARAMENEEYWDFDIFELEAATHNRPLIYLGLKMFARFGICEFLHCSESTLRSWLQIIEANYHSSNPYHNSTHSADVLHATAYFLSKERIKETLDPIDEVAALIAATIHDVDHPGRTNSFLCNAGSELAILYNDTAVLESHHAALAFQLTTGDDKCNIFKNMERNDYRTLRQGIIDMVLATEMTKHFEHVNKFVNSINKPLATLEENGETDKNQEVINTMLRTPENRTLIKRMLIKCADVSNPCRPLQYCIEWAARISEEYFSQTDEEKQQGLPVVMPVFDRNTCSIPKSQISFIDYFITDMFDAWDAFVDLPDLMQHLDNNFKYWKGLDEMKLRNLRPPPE

IC50 (PDE8 (PDE8A)): > 1 µM
IC50 (PDE11 (PDE11A)): > 1 µM
Compound: COc1ccc(-c2cc(N3CCCC3)nc(/C=C/c3nc(-n4ccnc4)c4ccccc4n3)n2)cc1OC [Compound A, 2-{(E)-2-[4-(1-imidazolyl)-quinazolin-2-yl]}ethenyl-4-(3,4-dimethoxy)phenyl-6-(pyrrolidin-1-yl)pyrimidine]
effects of L-dopa to alleviate symptoms (locomotor activity and motor disability score) (marmoset MPTP model): enhanced and/or prolonged duration of effects of L-dopa to alleviate symptoms
